Where two headings read alike, the source gives them in different places.
Molecular target: T1, MAP2K2 (Homo sapiens, UniProt P36507)
T1 construct: purchased ReactionBiology
Assay: Kinase activity test (ReactionBiology), % enzyme activity relative to DMSO
Type: biochemical
Settings: MEK2

[1] = Average, read-out: % Enzyme Activity (relative to DMSO controls), Average
[2] = replicate Data 1, read-out: % Enzyme Activity (relative to DMSO controls), Data 1
[3] = replicate Data 2, read-out: % Enzyme Activity (relative to DMSO controls), Data 2

T1 sequence (P36507 whole entry): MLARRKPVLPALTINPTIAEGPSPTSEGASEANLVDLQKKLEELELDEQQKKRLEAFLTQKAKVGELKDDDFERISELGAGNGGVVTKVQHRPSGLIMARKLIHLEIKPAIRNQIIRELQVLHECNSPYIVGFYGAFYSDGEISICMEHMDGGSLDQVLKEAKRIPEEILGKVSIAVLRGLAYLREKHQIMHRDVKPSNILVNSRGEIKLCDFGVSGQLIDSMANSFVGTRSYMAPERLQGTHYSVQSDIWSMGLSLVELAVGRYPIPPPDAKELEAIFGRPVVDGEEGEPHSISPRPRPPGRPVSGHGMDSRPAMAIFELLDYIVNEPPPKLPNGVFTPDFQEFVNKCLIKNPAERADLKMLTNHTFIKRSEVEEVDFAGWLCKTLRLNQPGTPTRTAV

Nc1ncnc2c1ncn2[C@@H]1O[C@H](CO)[C@@H](O)[C@H]1O [Adenosine, reference compound]
remaining activity at 1 µM [1]: 96.1% | remaining activity at 1 µM [2]: 96.6% | remaining activity at 1 µM [3]: 95.7% | remaining activity at 10 µM [1]: 59% | remaining activity at 10 µM [2]: 60.6% | remaining activity at 10 µM [3]: 57.4%

— PMC7252619 (PLoS ONE, 2020)
